Assay: storage stability of the solid form (polymorphic conversion)
Assay type: physicochemical

Structure (SMILES): COc1c(N2C[C@@H]3CCCN[C@@H]3C2)c(F)cc2c(=O)c(C(=O)O)cn(C3CC3)c12.Cl [Example 1, 1-cyclopropyl-7-([S,S]-2,8-diazabicyclo-[4.3.0]non-8-yl)-6-fluoro-1,4-dihydro-8-methoxy-4-oxo-3-quinolinecarboxylic acid]
- stability / polymorphic conversion on prolonged storage (prolonged storage over 3 weeks at ambient conditions): stable and exhibit no polymorphic conversion
- stability / polymorphic conversion on prolonged storage (prolonged storage over 3 weeks at high humidity accelerated conditions): stable and exhibit no polymorphic conversion
